Results as given in ChEMBL document CHEMBL1157539, “Thousands of chemical starting points for antimalarial lead identification” (Nature, 2010).

test system: Plasmodium falciparum; test: GSK_TCMDC: Inhibition of Plasmodium falciparum 3D7 in whole erythrocytes, using parasite LDH activity as an index of growth.; type: functional, organism-based; conditions: Plasmodium falciparum, 3D7

| SMILES | XC50 [nM] |
| --- | --- |
| CN(C)c1nc(NCc2ccccc2)nc(N/N=C/c2cc([N+](=O)[O-])ccc2O)n1 | 685 |
| Cc1cc(C)c2ncc(C(=O)O)c(O)c2c1 | 878 |
| O=C(NC1CCN(Cc2ccccc2)CC1)c1ccc2c(=O)n(Cc3ccc(Cl)cc3)c(=S)[nH]c2c1 | 998 |
| Oc1nc(Cc2ccccc2)nc2ccc(Cl)cc12 | 879 |
| Cc1cnc(C(=O)Nc2cccc(-c3ccc(-c4nc5cc(F)ccc5[nH]4)cc3)c2)cn1 | 637 |
| CC1CCC2(CC1)N=C(N)N=C(N)N2OCc1ccc(Br)c2ccccc12 (centres undefined) | 216 |
| CNC(=O)C1Cc2c([nH]c3cc(Br)ccc23)C2(CCN(CCc3ccccc3)CC2)N1 (centres undefined) | 721 |
| Cc1cc(N2CCOCC2)nc(Nc2ccc(NC(=O)Nc3ccc(F)cc3)cc2)n1 | 495 |
| COc1c(CNCCCCCCNCc2c(OC)c(OC)c3ccccc3c2OC)c(OC)c2ccccc2c1OC | 956 |
| O=C(NCc1ccc(F)cc1)Nc1ccc(-c2cccc(-c3nc4cc(C(F)(F)F)ccc4[nH]3)c2)cc1 | 946 |
| Cn1nc(-c2cccc(CN[C@@H]3CCc4ccc(O)cc43)c2)c2cnc(NC3CCCC3)nc21 | 736 |
| CCc1ccc(S(=O)(=O)Nc2ccc(CCN(C)C3CCN(C)CC3)cc2)cc1 | 1060 |
| Cc1ccc(Cn2ncc(N3CCCNCC3)c(Cl)c2=O)cc1NC(=O)Nc1ccc(-c2ccccc2)cc1 | 625 |
| Cc1cc(Br)c(OCCCON2C(=N)N=C(N)NC2(C)C)c(Br)c1 | 3.2 |
| N=C(Cc1ccc(Cl)cc1)NCCN1CCCCCC1 | 742 |
| O=C1Nc2ccc3ncccc3c2/C1=C/Nc1ccc(Cn2ccnc2)cc1 | 659 |
| CC1CN(Cc2ccc(-c3ccc(-c4nc5ccccc5[nH]4)cc3)cc2)CC(C)O1 (centres undefined) | 523 |
| c1ccc(C2CCN(Cc3ccc(-c4c[nH]c5nc(NC6CCCC6)ncc45)cc3)CC2)cc1 | 1010 |
| COc1ccc(-c2c(C(F)(F)F)nn(C)c2NC(=O)Nc2ccc(F)cc2F)cc1 | 797 |
| Cc1cc(=NN=Cc2ccccc2)c2cc(C(F)(F)F)ccc2[nH]1 | 153 |
| C=CCOC(=O)N1CCC(CNCc2ccc(-c3ccc(-c4nc5cc(C(F)(F)F)ccc5[nH]4)cc3)cc2)C1 (centres undefined) | 150 |
| CC(C)(C)c1ccc(CNC(=O)c2cc(CNC3CCC(N)CC3)ccc2O)cc1 (centres undefined) | 1030 |
| CCOC(C(=O)OCCN(C(C)C)C(C)C)(c1ccccc1)c1ccccc1 | 874 |
| Cc1cc(C2CCN(CCCCNC(=O)c3ccc(NC(=O)c4ccc(Cl)cc4)cc3)CC2)c(C)cc1OC(C)C | 744 |
| COc1c(CN2CCCC2)cccc1-c1cc2c(-c3ccc(C(=O)O)c(C(C)C)c3)ccnc2[nH]1 | 439 |

| SMILES | XC50 [nM] |
| --- | --- |
| COc1ccc(N2CCN(CCCCNC(=O)c3ccc(NC(=O)c4ccc(OC(F)(F)F)cc4)cc3)CC2)c(OC)c1 | 578 |
| Cc1ccc(CN2CCCCC(NC(=O)c3cc4ccccc4s3)C2)cc1 (centres undefined) | 900 |
| O=C(c1cccs1)N1CCN(c2ccc([N+](=O)[O-])c(NC3CC3)c2)CC1 | 767 |
| Cc1ccccc1N1CCN(c2ncc(C(=O)NC3CC3)cc2Cl)CC1 | 628 |
| COc1ccc2nccc([C@@H](O)CN3CCC(NCCOc4ccncc4)CC3)c2c1 | 690 |
| CCCc1cc(Cc2cnc(N)nc2N)cc(CCC)c1OC | 893 |
| O=S(=O)(NCCN1CCCC1)c1cccc(-c2ccc(CNCc3ccc(F)cc3)cc2)c1 | 234 |
| Cc1nnsc1C(=O)Nc1ccc(-c2ccc(-c3nc4cccc(C)c4[nH]3)s2)cc1 | 594 |
| O=C(NC1CCC1)C1CCN(C(c2ccc(Cl)cc2)c2ccc(Cl)cc2)CC1 | 562 |
| CC(C)N1CCCN(C(=O)C2CCN(c3ccc(C(=O)N4CCCC4)cn3)CC2)CC1 | 1060 |
| Cc1ccc(C)c2sc(N3CCN(C(=O)c4ccc([N+](=O)[O-])o4)CC3)nc12 | 819 |
| ON=C1c2cc(OCCN3CCCCC3)c(Cl)cc2-c2cc(Cl)c(OCCN3CCCCC3)cc21 | 703 |
| Cc1cccc2nc(-c3cccc(-c4cccc(NC(=O)Nc5ccc(Cl)c(Cl)c5)c4)c3)[nH]c12 | 375 |
| CCC(=O)N[C@@H]1CN[C@@H](C#Cc2cc3c(Nc4ccc(OCc5cccc(F)c5)c(Cl)c4)ncnc3s2)C1 | 1120 |
| COc1ccc(-c2nc3c(N)nc(N)nc3nc2-c2ccccc2Cl)cc1.COc1ccc(-c2nc3nc(N)nc(N)c3nc2-c2ccccc2Cl)cc1 | 549 |
| CN(C)CCNc1nccc(N2CCc3ncnc(Nc4ccc(OCc5cccc(F)c5)c(Cl)c4)c3C2)n1 | 138 |
| Cc1cccc2nc(-c3ccc(-c4cccc(CNCc5cccc(N)c5)c4)s3)[nH]c12 | 517 |
| Cc1cc(-c2ccc(CNCCc3cccs3)cc2)ccc1S(=O)(=O)NCc1ccccc1 | 1140 |
| COc1cc2c(Nc3ccc(Br)cc3F)ncnc2cc1OCC1CCN(C)CC1 | 770 |
| Cc1cccc2nc(-c3ccc(-c4ccc(CNCC5CCCO5)cc4)s3)[nH]c12 (centres undefined) | 739 |
| O=C(NC(CCCN1CCC(c2ccccc2)CC1)c1ccc(Cl)c(Cl)c1)c1cc(C(F)(F)F)cc(C(F)(F)F)c1 (centres undefined) | 865 |
| COc1ccc(O)c(Cc2cnc3nc(N)[nH]c(=O)c3c2C)c1 | 234 |
| CN(c1ccccc1)c1ccnc(NC(=N)Nc2ccc(Cl)cc2)n1 | 1090 |
| COc1ccc(CC(C)NCC(O)c2cccc(C(F)(F)F)c2)cc1 (centres undefined) | 1580 |
| CCCN(Cc1nnc(-c2cccs2)o1)C(=O)CSc1nnnn1-c1ccc(C)c(C)c1 | 582 |

| SMILES | XC50 [nM] |
| --- | --- |
| Cn1ccc(-c2cccc(Nc3ccnc4cc(-c5nccs5)ccc34)c2)n1 | 405 |
| CCNc1cc(C(=O)N[C@@H](Cc2ccccc2)[C@H](O)CNCc2cc(OC)cc(OC)c2)cc(N2CCCS2(=O)=O)c1 | 43 |
| CCCCOc1cc2c(cc1OCC)C(C=Cc1ccc(Cl)cc1Cl)=NCC2 | 403 |
| c1ccc2[nH]c(-c3ccc(-c4ccc(CNC5CC5)cc4)s3)nc2c1 | 1050 |
| Cc1cc(N[C@@H](CC(C)C)C(=O)NCCOc2ccccc2)nc(NCC2CCCCC2)n1 | 972 |
| COCCn1c(Sc2ccc(C#N)c([N+](=O)[O-])c2)nnc1-c1ccc(N(C)C)cc1 | 1030 |
| COc1ccc2nccc([C@@H](O)CN3CCC(c4cc(-c5ccc(Cl)cc5)[nH]n4)CC3)c2n1 | 737 |
| COc1ccc(-c2cccc(NC(=O)c3cccc(Cl)c3)c2)cc1CN1CCCN(C)CC1 | 231 |
| CC(C)N1CCN(c2ccc(OCCCCN3CCN(c4cccc(Cl)c4Cl)CC3)c(C(F)(F)F)c2)CC1 | 815 |
| COc1cccc(-c2ccc(C(=O)NC3CCN(Cc4ccc(N(C)C)cc4)CC3)s2)c1 | 1390 |
| Clc1cc(Cl)c2cc(CNCCCNc3ccc4ccccc4n3)[nH]c2c1 | 339 |
| O=C(Nc1ccc(CCNC2=NCCN2)cc1)Nc1ccc(CCNC2=NCCN2)cc1 | 789 |
| O=C(/C=C/c1c(Cl)cccc1Cl)NC1CCC(CN2CCC(c3c[nH]c4ccncc34)CC2)CC1 (centres undefined) | 158 |
| CN(C)C(=O)c1ccc(CN(Cc2ccc(OC(C)(C)C)cc2)Cc2ccc3c(c2)OCCO3)cc1 | 829 |
| CNc1ccc(CNCc2ccc(-c3ccc(-c4nc5cccc(C)c5[nH]4)cc3)cc2)cc1 | 319 |
| COc1ccc(-c2cnc3[nH]cc(-c4ccc(CCC(=O)O)cc4)c3c2)cn1 | 773 |
| CCN(CC)S(=O)(=O)n1ncc2c3c(N)nc(N)nc3ccc21 | 54.9 |
| Cc1occc1C(=O)Nc1nc(-c2ccccn2)nc2ccsc12 | 899 |
| C=C[C@H]1CN2CC[C@H]1C[C@H]2[C@H](O)c1cc(-c2ccc(Cl)cc2)nc2ccc(OC)cc12 | 30.3 |
| COc1ccc(Cl)cc1C(=O)Nc1ccc(-c2nc3ccccc3[nH]2)cc1 | 774 |
| CC(C)(C)c1ccccc1SC1=C(O)CC2(CCNCC2)OC1=O | 884 |
| Clc1cc(Nc2ncnc3sc(C#C[C@H]4CCCN4)cc23)ccc1OCc1cccnc1Cl | 569 |
| Cc1cccc2nc(-c3cccc(-c4ccc(NC(=O)C(C)CN5CCOCC5)cc4)c3)[nH]c12 (centres undefined) | 689 |
| O=C(c1ccccc1[N+](=O)[O-])N(Cc1ccccc1)c1ccccn1 | 192 |
| O=C(/C=C/c1ccsc1)NC1CCC(CN2CCC(c3c[nH]c4ccccc34)CC2)CC1 (centres undefined) | 1120 |

| SMILES | XC50 [nM] |
| --- | --- |
| Brc1ccc(C=NNc2nc3ccccc3[nH]2)cc1 | 700 |
| Cc1[nH]c(C)c(-c2ccc(-c3cccc(C(F)(F)F)c3)nc2)c(=O)c1Br | 140 |
| COc1cc2c(cc1OC)CC(NCc1ccc(-c3ccc4nc[nH]c4c3)cc1)C2 | 846 |
| COc1ccc(CC(C)NCC(O)c2cccc(Br)c2)cc1 (centres undefined) | 961 |
| CN(C)CCN(C)C(=O)c1cc(-c2ccncc2)c(-c2ccc(Cl)c(O)c2)o1 | 1050 |
| CCOCCCn1c(=N)c(C(=O)NCc2ccc(F)cc2)cc2c(=O)n3cccc(C)c3nc21 | 526 |
| Nc1nc(Nc2cccc(O)c2)nc2ccccc12 | 791 |
| CCNc1c2ccc(Cl)cc2nc2ccc(OC)cc12 | 843 |
| Nc1nc(N)c2cc(C(F)(F)F)ccc2n1 | 1130 |
| Cc1cccc(C(O)CNc2ccnc(Nc3cccc(-c4csc(C)n4)c3)n2)c1 (centres undefined) | 675 |
| Cc1cc(N[C@@H](Cc2ccccc2)C(=O)Nc2ccccc2)nc(NCCc2ccccn2)n1 | 874 |
| CC(=O)Nc1ccc(Nc2cc(C)nc(Nc3ccc(NC(C)=O)cc3)n2)cc1 | 894 |
| COc1cccc(C(=O)C2CC2CN2CC=C(c3c[nH]c4ccc(OC)nc34)CC2)c1 (centres undefined) | 526 |
| CC(CN(C)C)C(=O)Nc1ccc(-c2ccc(-c3nc4cc(C(F)(F)F)ccc4[nH]3)cc2)cc1 (centres undefined) | 747 |
| CC(CN(C)C)C(=O)Nc1cccc(-c2ccc(-c3nc4cc(F)ccc4[nH]3)s2)c1 (centres undefined) | 801 |
| CC12CCC(=O)N1C(C(=O)Nc1cccc(C(=O)Nc3cccc(C(F)(F)F)c3)c1)CS2 (centres undefined) | 358 |
| Cc1ccccc1C1CCN(C2CCC(NC(=O)/C=C/c3cccc(Cl)c3Cl)CC2)CC1 (centres undefined) | 1030 |
| Cc1cc2nc(-c3cc(-c4cccc(NS(C)(=O)=O)c4)cnc3N)[nH]c2cc1C | 672 |
| COc1ccccc1COc1c(C)nc(N)nc1N | 706 |
| COc1ccc(C2CCN(CCCNC(=O)c3ccc(NC(=O)c4ccc(Cl)cc4)cc3)CC2)c(OC)c1 | 763 |
| Cc1ccccc1C1CCN(C2CCC(NC(=O)/C=C/c3cccc(Cl)c3)CC2)CC1 (centres undefined) | 891 |
| Cc1cc2c(cc1C(F)(F)F)N(C(=O)Nc1ccc(OCCN(C)C)c(C(F)(F)F)c1)CC2 | 905 |
| COc1nc2c(CCN3CC[C@@H](NCc4cc(C#N)c5c(c4)CCO5)[C@@H](O)C3)ccnc2cc1F | 1030 |
| CCc1c(CCNCCCCCCNCCc2ccccc2)ccc(OC)c1OC | 800 |
